Values quoted from earlier work as cited in patent US20160199460A1, “COMPOSITIONS FOR REDUCING THE DELETERIOUS EFFECTS OF STRESS AND AGING” (HydroPep, LLC, priority 2010, published 2016).

Tested on: aging individuals (>50 years of age)
Settings: oral D-ribose; aging individuals (>50 years of age) with tiredness for at least one month

Question: With `O=C[C@H](O)[C@H](O)[C@H](O)CO` [D-ribose] as the compound, how does the “Physical fatigue and mental outlook” value read?
Answer: lessening physical fatigue
